According to patent US20200113923A1, “DOT1L INHIBITORS FOR USE IN THE TREATMENT OF LEUKEMIA” (Epizyme, Inc., priority 2012, published 2020):
pIC50: −log10 of the molar value.

Tests used:
Assay type in all cases: cell-based, Human
[1] = system: FLT3; test: Quantitative real-time PCR, FLT3 expression after DOT1L inhibitor treatment; conditions: up to 10 μM for 6 days, qPCR
Method: (§1) Exponentially growing EOL-1 cells were plated in a 12 well plate at 2×10^5 cells/mL. […] On day 4, cells were maintained in log phase culture by reseeding at 5×10^5 cells/mL and compound was replenished. At day 6 cells were washed twice with PBS and pelleted by centrifugation at 200×g. Cell pellets were lysed in 300 μL RLT buffer (Qiagen) and total RNA was isolated using the RNeasy total RNA isolation kit (Qiagen 74106). Total RNA (1 μg) was reverse transcribed using a high capacity cDNA reverse transcription kit (Applied Biosystems 4368813). RNA isolation and cDNA synthesis were carried out according to the manufacturer's protocol. Predesigned labeled primer and probe sets for HOXA9 (Hs00365956), MEIS1 (Hs00180020) and FLT3 (Hs00975659) were purchased from Applied Biosystems. Quantitative real-time PCR (qPCR) reactions contained 50 ng cDNA, 1× labeled primer and probe set, and 1× Taqman universal PCR master mix (Applied Biosystems 4304437). Samples were run on a 7900 HT Fast Real Time PCR machine (Applied Biosystems 4351405) with cycling conditions of 2 min 50° C., 10 min 95° C., 40 cycles at 15 sec 95° C. and 1 min 60° C. […] Percent of DMSO control was calculated with the equation (2^−ΔΔCT)*100 where the ΔΔCT is the difference between normalized target gene and DMSO control (ΔCT sample−ΔCT control=ΔΔCT). […]

[2] = system: H3K79me2; test: H3K79me2 immunoblot in EOL-1 cells
Method: Nuclei were collected by centrifugation at […] for 5 minutes at 4° C. and washed once in Tris/EDTA buffer (pH 7.4). Supernatant was removed and histones extracted for one hour with 60 μl 0.4 N cold sulfuric acid. Extracts were clarified by centrifugation at 10,000 g for 10 minutes at 4° C. and transferred to a fresh microcentrifuge tube containing 600 μl ice cold acetone. Histones were precipitated at −20° C. for 2 hours, pelleted by centrifugation at 10,000 g for 10 minutes and resuspended in 60 μl distilled water (DI water). Total protein of the acid extracts was assessed using a bicinchoninic acid (BCA) protein quantification assay with a bovine serum albumin (BSA) standard (Pierce Biotechnology).
For immunoblot analysis of the H3K79me2 inhibition by DOT1L inhibitor, exponentially growing EOL-1 cells were seeded at 2×10^5 cells/mL and incubated in the presence of increasing concentrations of DOT1L inhibitor for 4 days. […] Signal intensities specific for each methyl-specific antibody was quantified using Odyssey software and normalized to that of the appropriate total histone control signal on the same filter by dividing the methyl-specific antibody signal intensity by the total histone control signal intensity.
Inhibition of methylation of H3K79 was assessed after 4 days of treatment of DOT1L compounds in exponentially growing EOL-1 cells. […]

[3] = system: HOXA9; test: Quantitative real-time PCR, HOXA9 expression after DOT1L inhibitor treatment; conditions: up to 10 μM for 6 days, qPCR
Method: as §1

[4] = system: EOL-1 cells; test: EOL-1 cell growth and viability assay (Guava Viacount, 11 days)
Method: Human leukemia cell line EOL-1 (Catalog # ACC-386) was purchased from DSMZ and were grown in Roswell Park Memorial Institute medium (RPMI) with 10% Fetal Bovine Serum (FBS). Cells were kept in log growth as outlined in the technical data sheet provided by the vendor.
Exponentially growing EOL-1 cells were plated in 96-well plates at a density of 3×10^4 viable cells/well. Each treatment was seeded in triplicate with a final well volume of 150 μLs. Cells were incubated with increasing concentrations of DOT1L inhibitor up to 50 μM. Viable cell number was determined every 3-4 days for 11 days using the Guava Viacount assay (Millipore #4000-0040) and analyzed on a Guava EasyCyte Plus instrument according to the manufacturer's protocol. On the days of cell counts, growth media and inhibitor were replenished and cells maintained in log phase culture by reseeding at a density of 5×10^4 viable cells/well. Total cell number was expressed as split-adjusted viable cells per well. For each cell inhibitor IC50 values were determined from concentration-dependence curves at day 11. […]
The effect of DOT1L inhibitors on leukemia cell growth and viability was investigated. […] The number of viable cells was determined every 3-4 days for 11 days. […] Total cell number was expressed as split-adjusted viable cells per well. […]

[5] = system: MEIS1; test: Quantitative real-time PCR, MEIS1 expression after DOT1L inhibitor treatment; conditions: up to 10 μM for 6 days, qPCR
Method: (§2) Exponentially growing EOL-1 cells were plated in a 12 well plate at 2×10^5 cells/mL. […] On day 4, cells were maintained in log phase culture by reseeding at 5×10^5 cells/mL and compound was replenished. At day 6 cells were washed twice with PBS and pelleted by centrifugation at 200×g. Cell pellets were lysed in 300 μL RLT buffer (Qiagen) and total RNA was isolated using the RNeasy total RNA isolation kit (Qiagen 74106). Total RNA (1 μg) was reverse transcribed using a high capacity cDNA reverse transcription kit (Applied Biosystems 4368813). RNA isolation and cDNA synthesis were carried out according to the manufacturer's protocol. Predesigned labeled primer and probe sets for HOXA9 (Hs00365956), MEIS1 (Hs00180020) and FLT3 (Hs00975659) were purchased from Applied Biosystems. Quantitative real-time PCR (qPCR) reactions contained 50 ng cDNA, 1× labeled primer and probe set, and 1× Taqman universal PCR master mix (Applied Biosystems 4304437). Samples were run on a 7900 HT Fast Real Time PCR machine (Applied Biosystems 4351405) with cycling conditions of 2 min 50° C., 10 min 95° C., 40 cycles at 15 sec 95° C. and 1 min 60° C. […] Percent of DMSO control was calculated with the equation (2^−ΔΔCT)*100 where the ΔΔCT is the difference between normalized target gene and DMSO control (ΔCT sample−ΔCT control=ΔΔCT).

[6] = system: DOT1L; test: Quantitative real-time PCR, DOT1L expression after DOT1L inhibitor treatment; conditions: up to 10 μM for 6 days, qPCR
Method: as §2

Structure (SMILES)	FLT3 expression [1]	inhibition of methyltransferase activity of DOT1L (H3K79me2 western blot) ([2]; 4 days, 0.009 to 10 μM)	pIC50 ([2]; Homo sapiens, EOL1, 96 h, 4 days of treatment, read-out: IC50, inhibition of methylation of H3K79 (H3K79me2))	HOXA9 expression [3]	cell growth of EOL-1 cells ([4]; 0.003 μM-50 μM, 11 days, MLL PTD cell line)	pIC50 ([4]; Homo sapiens, EOL1, 264 h, concentration-dependence curves at day 11)	MEIS1 expression [5]	DOT1L gene expression [6]
CC(C)N(C[C@H]1O[C@@H](n2cnc3c(N)ncnc32)[C@H](O)[C@@H]1O)[C@H]1C[C@@H](CCc2nc3cc(C(C)(C)C)ccc3[nH]2)C1 [Compound A2, (2R,3R,4S,5R)-2-(6-amino-9H-purin-9-yl)-5-((((1r,3S)-3-(2-(5-(tert-butyl)-1H-benzo[d]imidazol-2-yl)ethyl)cyclobu-tyl)(isopropyl)a-mino)methyl)tet-rahydrofuran-3,4-diol]	reduced in a dose-dependent manner	dose-dependent inhibition	7.57	reduced in a dose-dependent manner	significantly inhibited	8.70		
CC(C)N(CCCNC(=O)Nc1ccc(C(C)(C)C)cc1)CC1O[C@@H](n2ccc3c(N)ncnc32)[C@H](O)[C@@H]1O (stereo partly shown) [Compound T]	reduced in a dosage-dependent manner			reduced in a dosage-dependent manner			reduced in a dosage-dependent manner	not reduced
